Results from US6228868A, “Oxazoline antiproliferative agents” (Abbott Laboratories, priority 1999, dated 2001).

Key:
HCT-15 cells = assay: 48-hour cellular proliferation assay, sulforhodamine stain (human colon adenocarcinoma, MDR positive); type: cell-based; conditions: Homo sapiens
Protocol: (§1) Compounds of this invention were tested in a 48-hour cellular proliferation assay that uses human colon adenocarcinoma, MDR positive (HCT-15) cells, and human lung large cell carcinoma, MDR negative (NCI-H460) cells, in the 96-well microtitre format described in Skehan P., et al. New Colorimetric Cytotoxicity Assay for Anticancer Drug Screening. 1990, J. Natl. Cancer Inst. 82:1107-1112, hereby incorporated by reference. Briefly, the wells of a microtitre plate were charged sequentially with cultured cells and compounds of the invention (1.0×10^-4 to 1.0×10^-11 M in 10% DMSO prepared by dissolving compounds of the invention in DMSO and adding 11 μL of the DMSO solution to 100 μL of culture medium for a final DMSO concentration of 10%). Two of the following controls were also present in each microtitre plate: a solvent (DMSO) control without drug that yielded a 0% inhibition level and a trichloroacetic acid-treated well that yielded a 100% inhibition level. The cells were grown in culture (37° C., 5% CO2 atmosphere) for 48 hours then fixed by the addition of trichloroacetic acid. The wells were stained with sulforhodamine, washed with 1% acetic acid, and treated with 0.01 M tris buffer (100 μL) to solubilize the adherent dye. The absorbance of the dye solution was measured with a Molecular Devices SpectraMax340 plate reader. Percent inhibition and Inhibitory Concentrations (IC50) values were obtained by calculating the proportional response of the experimental values to the absorbance values of the controls.

NCI-H460 cells = assay: 48-hour cellular proliferation assay, sulforhodamine stain (human lung large cell carcinoma, MDR negative); type: cell-based; conditions: Homo sapiens, NCI-H460 cells
Protocol: as §1

SMILES | IC50 (HCT-15 cells; values given in μM) [µM] | IC50 (NCI-H460 cells; values given in μM) [µM] | IC50 (HCT-15 cells; values in nM) [µM] | IC50 (NCI-H460 cells; values in nM) [µM]
COc1cc(C2CN=C(c3ccc4c(ccn4C(=S)SC)c3)O2)cc(OC)c1OC (centres unmarked) [Example 56, 2-(1-methlthiothiocarbonylindol-5-yl)-5-(3,4,5-trimethoxyphenyl)-Δ2,3-oxazoline] | 12 | 6 | – | –
COc1cc(C2CN=C(c3cc4ccn(C)c4cc3Cl)O2)cc(OC)c1OC (centres unmarked) [Example 60, 2-(6-Chloro-1-methylindol-5-yl)-5-(3,4,5-trimethoxyphenyl)-Δ2,3-oxazoline] | – | – | 0.28 | 0.41
COc1cc(C2CN=C(c3ccc4c(ccn4C(F)F)c3)O2)cc(OC)c1OC (centres unmarked) [Example 61, 2-(1-difluoromethylindol-5-yl)-5-(3,4,5-trimethoxyphenyl)-Δ2,3-oxazoline] | – | – | 0.0019 | 0.0018
COc1cc(C2CN=C(c3ccc4c(c3)c(Cl)cn4C)O2)cc(OC)c1OC (centres unmarked) [Example 62, 2-(3-chloro-1-methylindol-5-yl)-5-(3,4,5-trimethoxyphenyl)-Δ2,3-oxazoline] | – | – | 0.023 | 0.037
COc1cc(C2CN=C(c3cc(F)c4[nH]ccc4c3)O2)cc(OC)c1OC (centres unmarked) [Example 63, 2-(7-fluoro-5-indolyl)-5-(3,4,5-trimethoxyphenyl)-Δ2,3-oxazoline] | – | – | 0.02 | 0.043
COc1cc(C2CN=C(c3cc(F)c4c(ccn4C)c3)O2)cc(OC)c1OC (centres unmarked) [Example 64, 2-(1-methyl-7-fluoro-5-indolyl)-5-(3,4,5-trimethoxyphenyl)-Δ2,3-oxazoline] | – | – | 0.00396 | 0.0029
COc1cc(C2CN=C(c3cc(Cl)c4[nH]ccc4c3)O2)cc(OC)c1OC (centres unmarked) [Example 65, 2-(7-chloro-5-indolyl)-5-(3,4,5-trimethoxyphenyl)-Δ2,3-oxazoline] | – | – | 0.037 | 0.051
COc1cc(C2CN=C(c3cc(Cl)c4c(ccn4C)c3)O2)cc(OC)c1OC (centres unmarked) [Example 66, 2-(1-methyl-7-chloro-5-indolyl)-5-(3,4,5-trimethoxyphenyl)-Δ2,3-oxazoline] | – | – | 0.046 | 0.1
COc1cc(C2CN=C(c3ccc4[nH]cc(F)c4c3)O2)cc(OC)c1OC (centres unmarked) [Example 67, 2-(3-fluoro-5-indolyl)-5-(3,4,5-trimethoxyphenyl)-Δ2,3-oxazoline] | – | – | 0.023 | 0.038
COc1cc(C2CN=C(c3ccc4c(c3)c(F)cn4C)O2)cc(OC)c1OC (centres unmarked) [Example 68] | – | – | 0.047 | 0.15
COc1cc(C2CN=C(c3ccc4c(ccn4CO)c3)O2)cc(OC)c1OC (centres unmarked) [Example 69, 2-(1-hydroxymethylindol-5-yl)-5-(3,4,5-trimethoxyphenyl)-Δ2,3-oxazoline] | – | – | 0.45 | 0.68
COCn1ccc2cc(C3=NCC(c4cc(OC)c(OC)c(OC)c4)O3)ccc21 (centres unmarked) [Example 70, 2-(1-methoxymethyl-5-indolyl)-5-(3,4,5-trimethoxyphenyl)-Δ2,3-oxazoline] | – | – | 0.17 | 0.21
COc1cc(C2CN=C(c3ccc4c(c3)cc(C)n4C)O2)cc(OC)c1OC (centres unmarked) [Example 71] | – | – | 0.005 | 0.017
COc1cc(C2CN=C(c3cc(C)c4[nH]ccc4c3)O2)cc(OC)c1OC (centres unmarked) [Example 72, 2-(7-methyl-5-indolyl)-5-(3,4,5-trimethoxyphenyl)-Δ2,3-oxazoline] | – | – | 0.011 | 0.036
COc1cc(C2CN=C(c3cc(C)c4c(ccn4C)c3)O2)cc(OC)c1OC (centres unmarked) [Example 73, 2-(1,7-dimethyl-5-indolyl)-5-(3,4,5-trimethoxyphenyl)-Δ2,3-oxazoline] | – | – | 0.034 | 0.041
COc1cc(C2CN=C(c3cc(C)c4c(c3)cc(C)n4C)O2)cc(OC)c1OC (centres unmarked) [Example 74, 2-(1,2,7-trimethylindol-5-yl)-5-(3,4,5-trimethoxyphenyl)-Δ2,3-oxazoline] | 1.3 | 1.2 | – | –
COc1cc(C2CN=C(c3ccc4c(c3)nc(C)n4C)O2)cc(OC)c1OC (centres unmarked) [Example 75, 2-(1,2-dimethylbenzimidazol-5-yl)-5-(3,4,5-trimethoxyphenyl)-Δ2,3-oxazoline] | 1.9 | 3.8 | – | –
COc1cc(C2CN=C(c3ccc4c(c3)c(C(=O)C(F)(F)F)cn4C)O2)cc(OC)c1OC (centres unmarked) [Example 77, 2-(1-methyl-3-trifluoroacetylindol-5-yl)-5-(3,4,5-trimethoxyphenyl)-Δ2,3-oxazoline] | 3.8 | 4.2 | – | –
COc1cc(C2CN=C(c3ccc4c(ccn4CC(F)(F)F)c3)O2)cc(OC)c1OC (centres unmarked) [Example 78, 2-(1-(2,2,2-trifluoroethyl)indol-5-yl)-5-(3,4,5-trimethoxyphenyl)-Δ2,3-oxazoline] | 1.9 | 3.5 | – | –
